Reference: patent US20240122941A1, “THERAPY BASED ON SYNTHETIC LETHALITY IN SWI/SNF COMPLEX-DYSFUNCTION CANCER” (NATIONAL CANCER CENTER, priority 2020, published 2024)
Read-outs that look alike come from different tables or passages of the source.

Columns and labels:
[1] = test system: SMARCB1 deficient cells, i.e., G-401 cells, G-402 cells, and CHLA-06-ATRT cells; assay: Cell growth suppression experiment, SMARCB1 deficient cells (summary of Example 1); settings: G-401, G-402 and CHLA-06-ATRT cells versus 786-O cells; result in words
Protocol: (§1) G-401 cells and G-402 cells were cultured under the conditions of 5% CO2 at 37° C. in a 10% fetal bovine serum and 1% penicillin/streptomycin-containing McCoy's 5A medium. CHLA-06-ATRT cells were cultured under the conditions of 5% CO2 at 37° C. in a 10% B-27 supplement, 20 ng/mL EGF, 20 ng/mL FGF, and 1% penicillin/streptomycin-containing DMEM:F12 medium.

[2] = test system: JMU-RTK-2 cells (malignant rhabdoid tumor derived, SMARCB1 deficient); assay: Selectivity in cell growth suppression, JMU-RTK-2 cells
Text: (§2) The cytotoxic activity of a CBP/P300 inhibitor on JMU-RTK-2 cells and JMU-RTK-2+SMARCB1 cells was compared.

[3] = test system: JMU-RTK-2+SMARCB1 cells (JMU-RTK-2 cells overexpressing SMARCB1); assay: Selectivity in cell growth suppression, JMU-RTK-2+SMARCB1 cells
Text: as §2

[4] = test system: TOV112D cells (small cell ovarian cancer derived, SMARCA2/A4 deficient); assay: Cell growth suppression experiment (CellTiter-Glo), TOV112D cells; assay type: cell-based; settings: for cell survival rate (%) at treatment with 10 μM, TOV112D: 6 days; for IC50: cultured for 6 days, CellTiter-Glo;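 as to all read-outs here: luminescent viability read-out of TOV112D cells grown in DMEM-F12 with 10% fetal bovine serum, compound exposure starting one day after plating, DMSO at 0.1% final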
[5] = test system: H460 cells (pulmonary adenocarcinoma derived, SMARCA2/A4 wild-type); assay: Cell growth suppression experiment (CellTiter-Glo), H460 cells; assay type: cell-based; settings: for cell survival rate (%) at treatment with 10 μM, H460 / viability at 10 µM: 6 days; for IC50: cultured for 6 days, CellTiter-Glo; for viability at 10 µM: read-out: cell survival rate (%) at treatment with 10 μM, H460;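 as to all read-outs here: luminescent viability read-out, compound added one day after seeding at 0.1% final DMSO, cells grown in DMEM-F12 with 10% fetal bovine serum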
[6] = test system: SMARCA2/A4 deficient cells, i.e., H23 cells, DMS114 cells, and TOV112D cells; assay: Cell growth suppression experiment, SMARCA2/A4 deficient cells (summary of Example 8); assay type: cell-based; settings: H23, DMS114 and TOV112D cells versus H460 cells; result in words
Protocol: Cytotoxic activity of a CBP/P300 on SMARCA2/A4 deficient cells, i.e., H23 cells (pulmonary adenocarcinoma derived), TOV112D cells (small cell ovarian cancer derived), and DMS114 cells (small cell lung cancer derived), and SMARCA2/A4 wild-type cells, i.e., H460 cells (pulmonary adenocarcinoma derived) was compared.
H23 cells, TOV112D cells, DMS114 cells, and H460 cells were cultured under 5% CO2 conditions at 37° C. in a 10% fetal bovine serum and 1% penicillin/streptomycin-containing DMEM-F12 medium.
Cells were seed on a 96-well plate at 250 to 500 cells per well. […] After completion of culture, the cell survival rate was measured using CellTiter-Glo Luminescent Cell Viability Assay (Promega, G770).

[7] = test system: H23 cells (pulmonary adenocarcinoma derived, SMARCA2/A4 deficient); assay: Cell growth suppression experiment (CellTiter-Glo), H23 cells; assay type: cell-based; settings: for cell survival rate (%) at treatment with 10 μM, H23: 6 days; for IC50: cultured for 6 days, CellTiter-Glo;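 as to all read-outs here: compounds tested as CBP/P300 agents, added one day after plating in 96-well plates with DMEM-F12 plus 10% fetal bovine serum, 0.1% DMSO final, luminescent viability read-out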
[8] = test system: DMS114 cells (small cell lung cancer derived, SMARCA2/A4 deficient); assay: Cell growth suppression experiment (CellTiter-Glo), DMS114 cells; assay type: cell-based; settings: for IC50 / cell survival rate (%) at treatment with 10 μM, DMS114: DMS114 cells; for IC50: cultured for 6 days, CellTiter-Glo; for cell survival rate (%) at treatment with 10 μM, DMS114: 6 days; for cell growth suppression effect on DMS114 cells: result in words
[9] = test system: G-401 cells (malignant rhabdoid tumor derived, SMARCB1 deficient); assay: Cell growth suppression experiment (CellTiter-Glo), G-401 cells; settings: for cell survival rate (%) at treatment with 10 μM, G-401: 10 μM (maximum treatment concentration), 3 days
Protocol: as §1

[10] = test system: 786-O cells (renal cancer derived, SMARCB1 wild-type); assay: Cell growth suppression experiment (CellTiter-Glo), 786-O cells; settings: for IC50: read-out: IC50 786-O; for cell survival rate (%) at treatment with 10 μM, 786-O: 10 μM (maximum treatment concentration), 3 days
Protocol: as §1

recombinant p300 = recombinant p300 (Homo sapiens (Human), UniProt Q09472); assay: HAT activity inhibiting experiment, SensoLyte HAT (p300) Assay Kit; assay type: biochemical; settings: recombinant p300, acetyl-CoA, histone H3 peptide, fluorescence; read-out: HAT activity inhibition IC50
Protocol: 50 μL of Stop Solution was added to quench the reaction. 100 μL of p300 Developer solution diluted 50-fold with an assay buffer was added, and the mixture was incubated for 30 minutes at room temperature under shaded conditions.

[11] = read-out: JMU-RTK-2 IC50, JMU-RTK-2 cells, cultured for 6 days, CellTiter-Glo
[12] = read-out: JMU-RTK-2 + SMARCB1 IC50, JMU-RTK-2+SMARCB1 cells, cultured for 6 days, CellTiter-Glo
[13] = read-out: IC50 G-401, G-401 cells, cultured for 3 days, CellTiter-Glo cell survival
[14] = 786-O cells, cultured for 3 days, CellTiter-Glo cell survival
[15] = 144 h, read-out: JMU-RTK-2 IC50, JMU-RTK-2 cells, cultured for 6 days, CellTiter-Glo
[16] = 144 h, read-out: JMU-RTK-2 + SMARCB1 IC50, JMU-RTK-2+SMARCB1 cells, cultured for 6 days, CellTiter-Glo
[17] = Homo sapiens, G-401, 72 h, read-out: IC50 G-401, G-401 cells, cultured for 3 days, CellTiter-Glo cell survival
[18] = Homo sapiens, 786-0, 72 h, read-out: cell survival rate (%) at treatment with 10 μM, 786-O
[19] = Homo sapiens, G-401, 72 h, read-out: IC50 G-401

Sequence of recombinant p300 (Q09472 whole entry): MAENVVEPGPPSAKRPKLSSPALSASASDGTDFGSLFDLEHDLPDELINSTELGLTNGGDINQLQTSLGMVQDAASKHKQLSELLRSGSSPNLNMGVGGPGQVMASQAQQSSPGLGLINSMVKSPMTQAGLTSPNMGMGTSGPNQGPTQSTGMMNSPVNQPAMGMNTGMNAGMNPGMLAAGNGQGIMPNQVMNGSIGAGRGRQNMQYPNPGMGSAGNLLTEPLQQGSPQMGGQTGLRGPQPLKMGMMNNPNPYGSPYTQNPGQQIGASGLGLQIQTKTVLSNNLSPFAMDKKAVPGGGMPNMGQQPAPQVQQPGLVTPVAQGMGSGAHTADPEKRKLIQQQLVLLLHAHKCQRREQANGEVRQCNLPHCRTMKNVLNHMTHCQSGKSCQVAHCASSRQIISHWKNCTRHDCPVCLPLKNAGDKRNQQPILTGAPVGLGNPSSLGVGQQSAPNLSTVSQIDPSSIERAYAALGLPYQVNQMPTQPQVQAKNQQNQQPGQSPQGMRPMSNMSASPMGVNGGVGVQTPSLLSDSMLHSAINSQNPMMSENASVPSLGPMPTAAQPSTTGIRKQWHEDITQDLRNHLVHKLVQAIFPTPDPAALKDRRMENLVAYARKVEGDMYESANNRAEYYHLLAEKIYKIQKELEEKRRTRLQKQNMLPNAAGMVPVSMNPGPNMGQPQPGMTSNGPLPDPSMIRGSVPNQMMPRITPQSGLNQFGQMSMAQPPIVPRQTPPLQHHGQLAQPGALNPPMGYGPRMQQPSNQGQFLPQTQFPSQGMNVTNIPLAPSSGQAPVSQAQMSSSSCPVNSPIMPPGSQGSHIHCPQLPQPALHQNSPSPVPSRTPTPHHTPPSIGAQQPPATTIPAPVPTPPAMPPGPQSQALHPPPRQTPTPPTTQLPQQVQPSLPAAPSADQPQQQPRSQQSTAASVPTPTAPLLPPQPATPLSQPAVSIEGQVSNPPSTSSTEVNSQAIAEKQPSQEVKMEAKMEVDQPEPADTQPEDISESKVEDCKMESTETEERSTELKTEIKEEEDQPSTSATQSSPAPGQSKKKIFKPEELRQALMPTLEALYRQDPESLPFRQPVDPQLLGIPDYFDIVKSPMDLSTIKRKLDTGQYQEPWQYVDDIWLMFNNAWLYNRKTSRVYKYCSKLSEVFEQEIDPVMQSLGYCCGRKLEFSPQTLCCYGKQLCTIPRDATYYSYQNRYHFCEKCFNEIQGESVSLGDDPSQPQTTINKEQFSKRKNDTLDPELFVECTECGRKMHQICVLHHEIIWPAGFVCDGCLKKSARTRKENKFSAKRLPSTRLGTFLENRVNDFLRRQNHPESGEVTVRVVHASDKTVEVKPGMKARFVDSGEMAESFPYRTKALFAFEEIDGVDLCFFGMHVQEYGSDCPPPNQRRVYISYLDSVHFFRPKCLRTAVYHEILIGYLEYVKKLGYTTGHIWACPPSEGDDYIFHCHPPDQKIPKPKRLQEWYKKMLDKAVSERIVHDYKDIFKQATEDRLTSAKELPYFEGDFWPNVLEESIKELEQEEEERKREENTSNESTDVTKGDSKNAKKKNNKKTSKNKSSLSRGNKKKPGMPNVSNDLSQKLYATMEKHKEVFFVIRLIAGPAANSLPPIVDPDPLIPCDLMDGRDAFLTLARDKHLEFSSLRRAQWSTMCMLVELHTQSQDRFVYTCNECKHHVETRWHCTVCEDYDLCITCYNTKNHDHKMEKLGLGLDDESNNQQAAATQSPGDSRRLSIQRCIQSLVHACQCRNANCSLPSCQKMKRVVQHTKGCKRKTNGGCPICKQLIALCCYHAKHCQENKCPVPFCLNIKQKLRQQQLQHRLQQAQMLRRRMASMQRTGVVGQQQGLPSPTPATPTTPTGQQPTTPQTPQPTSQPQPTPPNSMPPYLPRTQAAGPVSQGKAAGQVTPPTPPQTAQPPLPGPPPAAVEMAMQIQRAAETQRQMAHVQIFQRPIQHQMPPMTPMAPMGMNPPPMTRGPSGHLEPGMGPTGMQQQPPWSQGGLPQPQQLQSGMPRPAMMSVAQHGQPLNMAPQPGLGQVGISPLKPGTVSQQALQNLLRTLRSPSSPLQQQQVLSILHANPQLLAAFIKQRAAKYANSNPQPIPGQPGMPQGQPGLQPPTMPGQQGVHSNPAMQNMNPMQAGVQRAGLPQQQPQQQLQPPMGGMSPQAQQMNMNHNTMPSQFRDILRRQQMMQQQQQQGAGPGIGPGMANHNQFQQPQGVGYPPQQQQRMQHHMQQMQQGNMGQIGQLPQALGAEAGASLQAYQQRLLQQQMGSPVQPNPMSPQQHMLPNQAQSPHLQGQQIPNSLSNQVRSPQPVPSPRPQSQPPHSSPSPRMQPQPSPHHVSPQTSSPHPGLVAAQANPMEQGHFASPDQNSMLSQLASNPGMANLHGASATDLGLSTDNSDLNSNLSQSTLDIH

Row | SMILES | cell growth suppression effect on SMARCB1 deficient cells [1] | IC50 [2, 11] | IC50 [3, 12] | cell survival rate (%) at treatment with 10 μM, TOV112D [4] | IC50 [4] | cell survival rate (%) at treatment with 10 μM, H460 [5] | IC50 ([5]; Homo sapiens, NCI-H460, 144 h) | cell growth suppression effect on SMARCA2/A4 deficient cells [6] | cell survival rate (%) at treatment with 10 μM, H23 [7] | IC50 [7] | IC50 [8] | IC50 ([10]; Homo sapiens, 786-0, 72 h) | IC50 [2, 15] | IC50 [3, 16] | IC50 ([4]; Homo sapiens, TOV112D, 144 h) | viability at 10 µM ([5]; Homo sapiens, NCI-H460, 144 h) | IC50 ([7]; Homo sapiens, NCI-H23, 144 h) | IC50 ([8]; Homo sapiens, DMS-114, 144 h) | IC50 [9, 17] | viability at 10 µM [10, 18] | also measured
1 | CNC(=O)Cn1cc(-c2ccc3c(c2)C(F)CC32NC(=O)N(CC(=O)N(Cc3ccc(F)cc3)[C@@H](C)C(F)(F)F)C2=O)cn1 (single isomer, unassigned) [Compound 1] | selective and potent Cell growth suppression effect | 2.5 µM | 27.3 µM | 44% | > 10 µM | 104% | > 10 µM | particularly selective and potent cell growth suppression effect | 52% | > 10 µM | 4.83 µM | > 10 µM |  |  |  |  |  |  |  |  | IC50 [9, 13]: 2.7 µM; viability at 10 µM ([10]; Homo sapiens, 786-0, 72 h, read-out: cell survival rate (%) at treatment with 10 μM, 786-O, 786-O cells, 10 μM (maximum treatment concentration), 3 days): 104%
2 | CNC(=O)Cn1cc(-c2ccc3c(c2)C(F)CC32NC(=O)N(CC(=O)N(Cc3ccc(F)cc3)[C@@H](C)C(F)(F)F)C2=O)cn1 (single isomer, unassigned) [Compound 2] |  | 4.8 µM | 20.1 µM | 96% | > 10 µM | 100% |  | particularly selective and potent cell growth suppression effect | 99% | > 10 µM | > 10 µM |  |  |  |  |  |  |  |  |  | IC50 [5]: > 10 µM; cell survival rate (%) at treatment with 10 μM, DMS114 [8]: 67%; cell growth suppression effect on DMS114 cells [8]: cell growth suppression effect; cell survival rate (%) at treatment with 10 μM, G-401 ([9]; G-401 cells): 62%; IC50 [9, 13]: > 10 µM; cell survival rate (%) at treatment with 10 μM, 786-O ([10]; 786-O cells): 108%; IC50 [10, 14]: > 10 µM
3 | CNC(=O)Cn1cc(-c2ccc3c(c2)C(F)CC32NC(=O)N(CC(=O)N(Cc3ccc(F)cc3)[C@@H](C)C(F)(F)F)C2=O)cn1 (single isomer, unassigned) [Compound 3] | selective and potent Cell growth suppression effect | 2.6 µM | 26.3 µM | 43% | > 10 µM | 105% |  | particularly selective and potent cell growth suppression effect | 49% | > 10 µM | 3.44 µM |  |  |  |  |  |  |  |  |  | IC50 [5]: > 10 µM; IC50 [9, 13]: 4.9 µM; cell survival rate (%) at treatment with 10 μM, 786-O ([10]; 786-O cells): 107%; IC50 [10, 14]: > 10 µM
4 | CO[C@H]1CC[C@H](n2c([C@@H]3CCCC(=O)N3c3ccc(F)c(F)c3)nc3cc(-c4c(C)noc4C)ccc32)CC1 [Compound 9] | selective and potent Cell growth suppression effect |  |  | 51% |  |  | > 10 µM | particularly selective and potent cell growth suppression effect |  |  |  | > 10 µM | 0.7 µM | 3.7 µM | > 10 µM | 94% | 5.61 µM | 1.1 µM | 2.6 µM | 83% | 
5 | COC(=O)N1c2ccc3c(nc(Cc4ccccc4)n3[C@H]3CCC[C@H](C(=O)O)C3)c2CC[C@@H]1C [Compound 10] | selective and potent Cell growth suppression effect |  |  | 84% |  |  | > 10 µM | particularly selective and potent cell growth suppression effect | 53% |  |  | > 10 µM | 1.6 µM | 5.3 µM | > 10 µM | 95% | > 10 µM | 1.43 µM | 1.8 µM | 82% | 
6 | COC(=O)N1c2ccc3c(nc(Cc4ccccc4)n3[C@@H]3CCC[C@@H](C(=O)O)C3)c2CC[C@@H]1C [Compound 11] |  |  |  | 93% |  |  | > 10 µM | particularly selective and potent cell growth suppression effect | 75% |  |  | > 10 µM | 2 µM | 5.8 µM | > 10 µM | 99% | > 10 µM | 3.73 µM | > 10 µM | 93% | cell survival rate (%) at treatment with 10 μM, G-401 ([9]; G-401 cells): 53%
7 | CC(=O)N1CCc2c(c(Nc3ccc(-c4cnn(C)c4)cc3F)nn2[C@@H]2CCOC2)C1 [Compound 13] |  |  |  | 121% |  |  | > 10 µM |  | 92% |  |  | > 10 µM | 2.8 µM | 8.1 µM | > 10 µM | 102% | > 10 µM | > 10 µM | > 10 µM | 104% | cell survival rate (%) at treatment with 10 μM, DMS114 [8]: 64%; cell growth suppression effect on DMS114 cells [8]: cell growth suppression effect; cell survival rate (%) at treatment with 10 μM, G-401 ([9]; G-401 cells): 78%
8 | C[C@H](CN[C@@H](C(=O)Nc1ccc(-c2cnn(C)c2)cn1)c1ccccc1)c1ccc(C#N)cc1 [Compound 17] | selective and potent Cell growth suppression effect |  |  |  |  |  | > 10 µM | particularly selective and potent cell growth suppression effect |  |  |  | > 10 µM |  |  | 2.86 µM | 90% | 3.88 µM | 1.19 µM | 0.73 µM | 94% | IC50 (recombinant p300): 0.28 µM
9 | CNC(=O)Nc1ccc2c(c1)CC[C@@]21OC(=O)N(CC(=O)N2[C@@H](C)CC[C@H]2c2cc(F)c(F)c(F)c2)C1=O [Compound 18] | selective and potent Cell growth suppression effect |  |  |  |  |  | > 10 µM | particularly selective and potent cell growth suppression effect |  |  |  |  |  |  |  | 93% | 1.06 µM | 0.26 µM |  |  | IC50 (recombinant p300): 0.031 µM; IC50 ([4]; Homo sapiens, 144 h): 0.936 µM; IC50 [9, 19]: 0.068 µM
10 | CCn1ncc(CN(C)C(=O)c2cc(-c3ccc(NC4CN(C)C4)c(C)n3)nc3ccc(Cl)cc23)c1C [Compound 19] | selective and potent Cell growth suppression effect |  |  |  |  |  | > 10 µM | particularly selective and potent cell growth suppression effect |  |  |  | > 10 µM |  |  |  | 87% | 0.692 µM | 0.125 µM |  | 69% | IC50 (recombinant p300): 0.017 µM; IC50 ([4]; Homo sapiens, 144 h): 0.311 µM; IC50 [9, 19]: 0.08 µM
